{"source": "paper PMC10803265", "about": "(Nature Medicine, 2023)", "key": {"[1]": {"tested_on": "non-small cell lung cancer", "details": "cited from earlier work"}, "patients": {"tested_on": "patients", "details": "cited from earlier work"}, "[2]": {"assay": "Divarasib plasma pharmacokinetics, non-compartmental analysis", "assay_type": "in vivo, human", "details": "divarasib 400 mg QD in combination with cetuximab (250 mg/m^2 QW), n=21; C1D8 or C2D1 AUC0-24 / C1D1 AUC0-24; mean ± s.d.", "procedure": "Pharmacokinetic parameters were estimated using non-compartmental analysis of concentration–time data. Plasma samples were evaluated for divarasib using a validated liquid chromatography tandem mass spectrometry assay. […] A stable labeled internal standard was used. Pharmacokinetic non-compartmental analysis was performed with nominal time using Phoenix WinNonlin (Certara USA, version 8.3). Graphical visualization was done using R (version 4.2.0; R Foundation for Statistical Computing). Pharmacokinetic samples at steady state were collected before dose, and at 0.5, 1, 2, 3, 4 and 8 h after dose on cycle 1 day 8 (C1D8) or on cycle 2 day 1 (C2D1)."}, "[3]": {"tested_on": "patients with KRAS G12C-positive CRC", "description": "Preliminary antitumor activity was determined by the investigator according to RECIST v1.1. […] PFS was defined as the time from first treatment to the first occurrence of disease progression or death from any cause during the study (whichever occurred first)."}, "[4]": {"details": "cited from earlier work"}, "KRAS G12C [5]": {"tested_on": "KRAS G12C", "details": "single-agent divarasib; patients with detectable KRAS G12C ctDNA at C1D1; cited from earlier work"}, "KRAS G12C [6]": {"tested_on": "KRAS G12C", "design": "method as in earlier work", "details": "in vitro; cited from earlier work"}, "[7]": {"tested_on": "pERK, pS6, DUSP6, SPRY4 in KRAS G12C-positive cancer cell lines", "design": "method as in GDC-6036 Investigator's Brochure", "details": "ref GDC-6036 Investigator's Brochure; cited from earlier work"}, "[8]": {"tested_on": "xenograft models of KRAS G12C-positive lung tumors", "design": "method as in GDC-6036 Investigator's Brochure", "details": "nonclinical xenograft models of KRAS G12C-positive lung tumors; ref GDC-6036 Investigator's Brochure; cited from earlier work"}, "cynomolgus monkeys": {"tested_on": "cynomolgus monkeys", "design": "method as in GDC-6036 Investigator's Brochure", "details": "ref GDC-6036 Investigator's Brochure, cited from earlier work"}, "mice": {"tested_on": "mice", "design": "method as in GDC-6036 Investigator's Brochure", "details": "gavage, attributed to chemical irritation by the higher concentration drug formulation, ref GDC-6036 Investigator's Brochure; cited from earlier work"}, "CYP3A4": {"tested_on": "CYP3A4", "design": "method as in GDC-6036 Investigator's Brochure", "details": "human hepatocyte culture; ref GDC-6036 Investigator's Brochure; cited from earlier work"}, "P-gp": {"tested_on": "P-gp", "design": "method as in GDC-6036 Investigator's Brochure", "details": "in vitro; ref GDC-6036 Investigator's Brochure; cited from earlier work"}, "BCRP": {"tested_on": "BCRP", "design": "method as in GDC-6036 Investigator's Brochure", "details": "in vitro; ref GDC-6036 Investigator's Brochure; cited from earlier work"}, "KRAS G12C-positive CRC": {"tested_on": "KRAS G12C-positive CRC", "details": "single-agent divarasib at 400 mg, patients with CRC; cited from earlier work"}, "[9]": {"details": "AMG 510 all events, n=129, MRTX849 related only, n=17, ref Janne et al. 2019, Hong et al. 2020"}, "[10]": {"details": "Phase I trial, one patient, ref Hong et al. 2020"}, "[11]": {"details": "in combination with cetuximab, 29 patients"}, "[12]": {"details": "divarasib 400 mg QD single agent, multiple doses (C1D8 or C2D1), N 76, mean ± s.d."}, "[13]": {"details": "single-agent divarasib at 400 mg"}}, "note": "“Also recorded” adds a separate entry of the source. Read-outs that look alike come from different tables or passages of the source."}
{"smiles": "C=CC(=O)N1CCN(c2nc(=O)n(-c3c(C)ccnc3C(C)C)c3nc(-c4c(O)cccc4F)c(F)cc23)[C@@H](C)C1", "note": "[sotorasib]", "values": [{"measurement": "ORR", "setting": "[1]; phase 2 trial", "value": 37, "unit": "%"}, {"measurement": "ORR", "setting": "[1]; phase 3 trial", "value": 28, "unit": "%"}, {"measurement": "all grade adverse events: diarrhea", "setting": "patients; [9]", "value": 29.5, "unit": "%"}, {"measurement": "all grade adverse events: nausea", "setting": "patients; [9]", "value": 20.9, "unit": "%"}, {"measurement": "all grade adverse events: vomiting", "setting": "patients; [9]", "value": 17.8, "unit": "%"}, {"measurement": "Grade 3 treatment-related increased AST, patients", "setting": "patients; Phase I trial, 3 out of 129, ref Hong et al. 2020", "value": 2.3, "unit": "%"}, {"measurement": "Grade 3 treatment-related increased ALT, patients", "setting": "patients; Phase I trial, 6 out of 129, ref Hong et al. 2020", "value": 4.7, "unit": "%"}, {"measurement": "any grade increased ALT, patients", "setting": "patients; Phase I trial, 15 out of 129, ref Hong et al. 2020", "value": 11.6, "unit": "%"}, {"measurement": "any grade increased AST, patients", "setting": "patients; Phase I trial, 17 out of 129, ref Hong et al. 2020", "value": 13.2, "unit": "%"}, {"measurement": "Grade 4 treatment-related elevation of ALT, patients", "setting": "patients; [10]", "value": 0.8, "unit": "%"}, {"measurement": "discontinued treatment because of Grade 3 treatment-related increase in ALT and AST levels, patients", "setting": "patients; [10]", "value": 0.8, "unit": "%"}]}
{"smiles": "C=CC(=O)N1CCN(c2nc(OC[C@@H]3CCCN3C)nc3c(F)c(-c4nc(N)cc(C)c4C(F)(F)F)c(Cl)cc23)[C@@H](C)C1", "note": "[divarasib]", "values": [{"measurement": "RAUC0-24", "setting": "[2]", "value": "1.2 ± 0.4", "unit": "fold"}, {"measurement": "diarrhea leading to divarasib dose reduction, patients", "setting": "[3]; all grade 3", "value": 10.3, "unit": "%"}, {"measurement": "vomiting leading to divarasib dose reduction, patients", "setting": "[3]; grade 1", "value": 3.4, "unit": "%"}, {"measurement": "TRAEs leading to divarasib dose interruptions, patients", "setting": "[3]; [11]", "value": 24.1, "unit": "%"}, {"measurement": "TRAEs leading to divarasib dose modifications (interruption, reduction or withdrawal), patients", "setting": "[3]; [11]", "value": 34.5, "unit": "%"}, {"measurement": "TRAEs leading to divarasib treatment withdrawals", "setting": "[3]; [11]", "value": "no divarasib treatment withdrawals; also recorded: No patients withdrew"}, {"measurement": "AUC0-24", "setting": "[4]; [12]", "value": "9130 ± 3160", "unit": "ng·h/mL"}, {"measurement": "Cmax", "setting": "[4]; [12]", "value": "657 ± 185", "unit": "ng/mL"}, {"measurement": "tmax", "setting": "[4]; divarasib 400 mg QD single agent, multiple doses (C1D8 or C2D1), N 76, median (range)", "value": "2.0 (0.5-8.0) hr"}, {"measurement": "RAUC0-24", "setting": "[4]; divarasib 400 mg QD single agent, n=63, mean ± s.d.", "value": "1.4 ± 0.4", "unit": "fold"}, {"measurement": "mean half-life", "setting": "[4]; single dose of divarasib 400 mg as a single agent", "value": "17.6 ± 2.7", "unit": "h"}, {"measurement": "patients with KRAS G12C VAF decline to below 0.5% at C3D1", "setting": "KRAS G12C [5]", "value": 45.7, "unit": "%"}, {"measurement": "potency compared to sotorasib and adagrasib", "setting": "KRAS G12C [6]", "value": "5 to 20", "unit": "times"}, {"measurement": "confirmed ORR", "setting": "[1]; [13]", "value": 56.4, "unit": "%"}, {"measurement": "median PFS", "setting": "[1]; [13]", "value": 13.1, "unit": "months"}, {"measurement": "downstream MAPK pathway components (pERK, pS6) and KRAS target genes (DUSP6, SPRY4)", "setting": "[7]", "value": "inhibited"}, {"measurement": "single-agent activity on tumor growth", "setting": "[8]", "value": "inhibits tumor growth"}, {"measurement": "clinical signs", "setting": "cynomolgus monkeys; 4-week toxicology studies in cynomolgus monkeys", "value": "gastrointestinal intolerance with retching and vomiting"}, {"measurement": "hepatic transaminases", "setting": "cynomolgus monkeys; cynomolgus monkeys", "value": "minimal to mild transaminase elevation"}, {"measurement": "microscopic findings", "setting": "mice", "value": "laryngeal necrosis"}, {"measurement": "CYP3A4 mRNA induction", "setting": "CYP3A4", "value": "induce messenger RNA (mRNA)"}, {"measurement": "CYP3A4 protein levels induction", "setting": "CYP3A4", "value": "not protein levels"}, {"measurement": "P-gp transporter inhibition", "setting": "P-gp", "value": "inhibit"}, {"measurement": "BCRP transporter inhibition", "setting": "BCRP", "value": "inhibit"}, {"measurement": "confirmed ORR", "setting": "KRAS G12C-positive CRC", "value": 35.9, "unit": "%"}, {"measurement": "median PFS", "setting": "KRAS G12C-positive CRC", "value": 6.9, "unit": "months"}]}
